Where two headings read alike, the source gives them in different places.
What was measured:
[1] = system: A431 and A431-B1 cell lines; test: Selective toxicity in A431 and A431-B1 cell lines; format: cell-based, human; conditions: A431 versus P-gp-transfected A431-B1
Protocol: (§1) Cell survival was measured by the PrestoBlue® Cell Viability Reagent (Life Technologies, USA). Cells were seeded in 100 μl medium at a density of 5000 cells/well in 96-well plates; the serially diluted drug was added the following day. Cells were then incubated for 72 hours at 37° C. in 5% CO2; the drug containing medium was removed, and the PrestoBlue® reagent was added according to the manufacturer's instructions. Fluorescence of the cells was measured by a Perkin Elmer EnSpire multimode plate reader or Perkin Elmer Victor X3 microplate reader. Data were background corrected and normalized to untreated cells. Curves were fitted with the help of Prism software using the sigmoidal dose-response model. Curve fit statistics were used to determine IC50 values. Differences between the IC50 values of the respective cell lines were analyzed by two-sided […] unpaired Student's t test and results were considered statistically significant at a P value of <0.05 (*) or 0.01 (**).
(§2) Data on selective toxicity (expressed as Selectivity Ratio, SR) in two MDR models engineered by retroviral transfection of P-glycoprotein (A431/A431-B1 and MDCK II/MDCK II B1 cell lines) are presented in Table 3 and Table 4.
(§3) A431 is a human epidermoid carcinoma cell line. Its derivative, the A431-B1 cell line expresses P-gp due to retroviral transfection of the mdr1 gene Türk, D. et al (Türk, D. et al., 2009). MDCK II is a canine kidney cell line. MDCK II B1 was created by inserting the mdr1 gene with transposons [Pape V F S et al. 2015] Both cell express P-gp stably, and show a stable MDR phenotype. Culture conditions were identical as in the case of MES-SA cells.

MES-SA/Dx5 cell line = test: Cytotoxicity, PrestoBlue cell viability assay, MES-SA/Dx5; format: cell-based; conditions: Homo sapiens
Protocol: (§4) The human uterine sarcoma cell line MES-SA and its doxorubicin resistant counterpart MES-SA/Dx5 were obtained from ATCC (MES-SA: No. CRL-1976™, MES-SA-Dx5: No. CRL-1977™). MES-SA/Dx5 cells express high levels of P-gp, and therefore are multidrug resistant (MDR). Cells were cultured in DMEM supplemented with 10% FBS, 5 mmol/L glutamine and 50 unit/mL penicillin and streptomycin (Life Technologies).
as §1

[2] = system: MES-SA and multidrug-resistant MES-SA/Dx5 cell line; test: Selective toxicity (ratio of IC50 in MES-SA to IC50 in MES-SA/Dx5) and activity index; format: cell-based, human
Description: Compounds having P-gp potentiated MDR-selective activity can be characterized by their inhibitory concentration (IC) with regard to a specific cancer cell line. Usually the IC value is given at a certain percentage ratio of non-inhibited molecules or surviving cells. For example an IC20 value of a compound on a cell line means that at this inhibitory concentration of the compound 80% of the cells are killed whereas 20% of the cells are still viable. A further characteristic of MDR-selective drugs is the selectivity ratio (SR), which is the ratio of the IC value measured in a non-multidrug resistant cell line to (i.e. divided by) the IC value measured in the corresponding transformed, multidrug-resistant cell line. The inverse value, the resistance ratio (RR) is calculated as the ratio of a compound's IC value against a multidrug resistant cell line divided by the parallel IC value of the same compound against a control non-multidrug resistant cell line. The Activity Index (AI) is calculated here as the ratio of the compound's selectivity ratio (SR) and the compound's IC50 value against the resistant cell. The AI reflects the level of simultaneous toxicity and selectivity towards multidrug-resistant cancer cells.
as §4, §1
Selectivity towards multidrug-resistant cells is expressed as the ratio of the IC50 value measured in the parental MES-SA and multidrug-resistant MES-SA/Dx5 cell line (Selectivity Ratio, SR).
A novel characteristic of the compounds presented in this invention is that they exert their selective cytotoxicity at low IC50 values. Simultaneous toxicity and selectivity towards multidrug-resistant cancer cells is reflected by the Activity Index (AI) of the compounds, which is the ratio of the selectivity ratio (SR) and the IC50 value on the resistant cell line.

[3] = system: P-gp-expressing MES-SA/Dx5 cells; test: P-gp switch assay (Calcein AM); format: cell-based, human; conditions: MES-SA/Dx5, single dose at IC20 (killing 80% of the cells), surviving population at 80% confluence, Calcein AM
Protocol: One million P-gp-expressing MES-SA/Dx5 cells were plated in a T25 cell culture flask. After 24 hours the compound of interest was added directly to the cells at a concentration corresponding to the IC20 value (killing 80% of the cells). After 5 days the culture media was removed, the cells were washed with PBS and the culture medium was exchanged. Cells were monitored daily and the recovery was recorded. The medium was changed every 5 days until the confluence of the cells reached 80%. At 80% confluence the cells were removed by gentle trypsinization, counted by an automated cell counter and stained with Calcein AM, a cellular dye able to detect the function of P-gp (Homolya 1993). P-gp-positivity was evaluated based on the ability of P-gp-expressing cells to extrude Calcein AM.

[4] = system: MES-SA and MES-SA/Dx5 cells; test: Selective toxicity in the presence of the P-gp inhibitor tariquidar; format: cell-based, human; conditions: selectivity ratio in the presence of tariquidar (1 μM)
Protocol: In the presence of tariquidar (an inhibitor of P-gp function), the toxicity of the compounds selectively diminishes in multidrug-resistant MES-SA/Dx5 cells, while the toxicity is unchanged against parental MESSA cells, which is reflected by a decrease in the selectivity ratio (SR (TQ)).
To investigate the contribution of P-glycoprotein to the cytotoxic effect of a compound, cell survival was measured in the presence of the P-glycoprotein inhibitor tariquidar (1 μM). Tariquidar (CAS 206873-63-4) can be obtained e.g. from Selleck, Houston, USA.

MES-SA cell line = test: Cytotoxicity, PrestoBlue cell viability assay, parental MES-SA; format: cell-based; conditions: Homo sapiens; parental MES-SA cell line (Table 2a)
Protocol: as §4, §1

[5] = system: MDCK II and MDCK II B1 cell lines; test: Selective toxicity towards MDCK II and MDCK II B1 cell lines; format: cell-based, canine; conditions: MDCK II versus MDCK II B1
Protocol: as §1, §2, §3

[6] = MES-SA/Dx5 (Table 2b), read-out: IC50 (μM) Dx5
[7] = Mes-sa/Dx5 cell line, PrestoBlue assay, 72 hours (Table 1), read-out: IC50
[8] = multidrug-resistant MES-SA/Dx5 cell line (Table 2a), read-out: IC50 (nM) in MES-SA/Dx5 cell line
[9] = MES-SA / MES-SA/Dx5, without tariquidar (Table 5)

Compound: O=C1NC2CCCCC2NC1c1cc(Cl)c2cccnc2c1O (mixture of isomers) [Example 22, (3R,4aS,8aS)-3-(5-Chloro-8-hydroxyquinolin-7-yl)octahydroquinoxalin-2(1H)-one and (3S,4aS,8aS)-3-(5-chloro-8-hydroxyquinolin-7-yl)octahydroquinoxalin-2(1H)-one]
- Selectivity Ratio (SR) (A431/A431-B1) [1]: 18.8

Compound: C/C(=N\Nc1ccc2cccc(O)c2n1)c1ccccc1O [Example 1, (E/Z)-2-(2-(1-(2-Hydroxyphenyl)ethylidene)hydrazinyl)quinolin-8-ol]
- melting point: 225 to 228 °C

Compound: C/C(=N\Nc1ccc2cccc(O)c2n1)c1ccccn1 [Example 2, (E/Z)-2-(2-(1-(Pyridine-2-yl)ethylidene)hydrazinyl)quinolin-8-ol]
- melting point: 213 to 214 °C

Compound: C/C(=N\Nc1ccc2ccc(CN3CCCCC3)c(O)c2n1)c1ccccc1O [Example 4, (E/Z)-2-(2-(1-(2-Hydroxyphenyl)ethylidene)hydrazinyl)-7-(piperidin-1-ylmethyl)quinolin-8-ol]
- Selectivity Ratio (SR) (A431/A431-B1) [1]: 11.7
- IC50 (MES-SA/Dx5 cell line; [6]): 0.16 µM
- IC50 (MES-SA/Dx5 cell line; [7]): 0.16 µM
- melting point: 184 to 187 °C
- SR ([2]; MES-SA / MES-SA/Dx5 (Table 2b)): 5.9

Compound: Oc1c(CN2CCCCC2)ccc2ccc(N/N=C/c3ccccn3)nc12 [Example 5, (E/Z)-7-(Piperidin-1-ylmethyl)-2-(2-(pyridine-2-ylmethylene)hydrazinyl)quinolin-8-ol]
- IC50 (MES-SA/Dx5 cell line; [8]): 1.97 µM
- melting point: 248 to 250 °C
- Fraction of P-gp-negative cells (P3) in the population [3]: 67.6%
- Fraction of P-gp-positive cells (P4) in the population [3]: 32.40%
- SR [2, 9]: 20.9
- SR (TQ) [4]: 1.2
- IC50 (MES-SA cell line): 40500 nM

Compound: Oc1c(CNC2CCCCC2)cc(Cl)c2cccnc12 [Example 6, 5-Chloro-7-((cyclohexylamino)methyl)quinolin-8-ol]
- Selectivity Ratio (SR) (A431/A431-B1) [1]: 11.5
- melting point: 123 to 125 °C

Compound: COc1ccc(CNCc2cc(Cl)c3cccnc3c2O)cc1 [Example 7, 5-Chloro-7-(((4-methoxybenzyl)amino)methyl)quinolin-8-ol]
- Selectivity Ratio (SR) (A431/A431-B1) [1]: 12.6
- melting point: 125 to 127 °C
- SR [2, 9]: 13.4
- SR (TQ) [4]: 1.3

Compound: COc1ccccc1CNCc1cc(Br)c2cccnc2c1O [Example 8, 5-Bromo-7-(((2-methoxybenzyl)amino)methyl)quinolin-8-ol]
- IC50 (MES-SA/Dx5 cell line; [6]): 0.16 µM
- IC50 (MES-SA/Dx5 cell line; [7]): 0.161 µM
- melting point: 135 to 137 °C
- SR ([2]; MES-SA / MES-SA/Dx5 (Table 2b)): 13.5

Compound: COc1ccc(CNCc2cc(Br)c3cccnc3c2O)cc1 [Example 10, 5-Bromo-7-(((4-methoxybenzyl)amino)methyl)quinolin-8-ol]
- Selectivity Ratio (SR) (A431/A431-B1) [1]: 11.2
- melting point: 129 to 132 °C

Compound: Cl.Oc1c(CNCc2ccccc2F)cc(Cl)c2cccnc12 [Example 12, 5-Chloro-7-({[(2-fluorophenyl)methyl]amino}methyl)quinolin-8-ol Hydrochloride]
- Selectivity Ratio (SR) (MDCK II/MDCK II B1) [5]: 8.3

Compound: Oc1c(C2NCCc3ccccc32)cc(Cl)c2cccnc12 (stereo not drawn) [Example 13, 5-Chloro-7-(1,2,3,4-tetrahydroisoquinolin-1-yl)quinolin-8-ol]
- IC50 (MES-SA/Dx5 cell line; [7]): 0.127 µM
- Fraction of P-gp-negative cells (P3) in the population [3]: 88.00%
- Fraction of P-gp-positive cells (P4) in the population [3]: 12.00%

Compound: Oc1c(C2NCCc3ccccc32)cc(Br)c2cccnc12 (stereo not drawn) [Example 14, 5-Bromo-7-(1,2,3,4-tetrahydroisoquinolin-1-yl)quinolin-8-ol]
- Selectivity Ratio (SR) (A431/A431-B1) [1]: 13.7
- IC50 (MES-SA/Dx5 cell line; [6]): 0.13 µM
- IC50 (MES-SA/Dx5 cell line; [7]): 0.13 µM
- SR ([2]; MES-SA / MES-SA/Dx5 (Table 2b)): 7.8

Compound: O=[N+]([O-])c1cc(C2NCCc3ccccc32)c(O)c2ncccc12 (stereo not drawn) [Example 15, 5-Nitro-7-(1,2,3,4-tetrahydroisoquinolin-1-yl)quinolin-8-ol]
- IC50 (MES-SA/Dx5 cell line; [6]): 0.59 µM
- IC50 (MES-SA/Dx5 cell line; [8]): 0.594 µM
- Fraction of P-gp-negative cells (P3) in the population [3]: 67.2%
- Fraction of P-gp-positive cells (P4) in the population [3]: 32.80%
- SR ([2]; MES-SA / MES-SA/Dx5 (Table 2b)): 23.8
- SR [2, 9]: 23.8
- SR (TQ) [4]: 1.4
- IC50 (MES-SA cell line): 12400 nM

Compound: COc1cc2c(cc1OC)C(c1cc(Cl)c3cccnc3c1O)NCC2 (stereo not drawn) [Example 16, 5-Chloro-7-(6,7-dimethoxy-1,2,3,4-tetrahydroisoquinolin-1-yl)quinolin-8-ol]
- Selectivity Ratio (SR) (A431/A431-B1) [1]: 24.7
- SR [2, 9]: 10.3
- SR (TQ) [4]: 0.9

Compound: Oc1c(C2NCCc3sccc32)ccc2cccnc12 (stereo not drawn) [Example 18, 7-(4,5,6,7-Tetrahydrothieno[3,2-c]pyridin-4-yl)quinolin-8-ol]
- IC50 (MES-SA/Dx5 cell line; [7]): 0.157 µM
- Fraction of P-gp-negative cells (P3) in the population [3]: 80.6%
- Fraction of P-gp-positive cells (P4) in the population [3]: 19.40%

Compound: O=[N+]([O-])c1cc(C2NCCc3sccc32)c(O)c2ncccc12 (stereo not drawn) [Example 19, 5-Nitro-7-(4,5,6,7-tetrahydrothieno[3,2-c]pyridin-4-yl)quinolin-8-ol]
- Selectivity Ratio (SR) (A431/A431-B1) [1]: 24.7

Compound: COc1ccc(CNCc2cc([N+](=O)[O-])c3cccnc3c2O)c(OC)c1 [Example 28, 7-(((2,4-Dimethoxybenzyl)amino)methyl)-5-nitroquinolin-8-ol]
- IC50 (MES-SA/Dx5 cell line; [6]): 0.44 µM
- IC50 (MES-SA/Dx5 cell line; [8]): 0.442 µM
- melting point: 206 to 209 °C
- SR ([2]; MES-SA / MES-SA/Dx5 (Table 2b)): 19.7
- SR [2, 9]: 19.7
- SR (TQ) [4]: 1.6
- IC50 (MES-SA cell line): 8650 nM
